Source: PubChem BioAssay AID330 (DTP/NCI, 2004)
“And” between values parts separate entries of the source, which are not always exact repeats. Equal values may be shown once. Inconclusive results and toxic doses are left out.

System: P388 leukemia ip, CD2F1 mice, survival T/C
Assay: NCI In Vivo Anticancer Drug Screen. Data for tumor model P388 Leukemia (intraperitoneal) in CD2F1 (CDF1) mice
Conditions: endpoint: median survival time, higher = longer survival
Summary of the method: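 Mice carrying the transplanted tumor received test compound or vehicle. Survival was recorded in each group, and the value is the treated-group measurement divided by that of the vehicle-treated control group.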

[1] = dose: 200.0 mg/kg/injection, schedule: Q04DX003 (ip), vehicle: saline
[2] = dose: 50.0 mg/kg/injection, schedule: Q01DX009 (ip), vehicle: saline with Tween-80
[3] = dose: 100.0 mg/kg/injection, schedule: Q01DX009 (ip), vehicle: saline with Tween-80
[4] = dose: 200.0 mg/kg/injection, schedule: Q01DX009 (ip), vehicle: saline with Tween-80
[5] = dose: 50.0 mg/kg/injection, schedule: Q01DX005 (ip), vehicle: saline with Tween-80
[6] = dose: 100.0 mg/kg/injection, schedule: Q01DX005 (ip), vehicle: saline with Tween-80
[7] = dose: 50.0 mg/kg/injection, schedule: Q01DX009 (ip), vehicle: Klucel (hydroxypropylcellulose) (HPC)
[8] = dose: 100.0 mg/kg/injection, schedule: Q01DX009 (ip), vehicle: Klucel (hydroxypropylcellulose) (HPC)
[9] = dose: 200.0 mg/kg/injection, schedule: Q01DX009 (ip), vehicle: Klucel (hydroxypropylcellulose) (HPC)

O=C(OC(C(=O)O)c1ccccc1)c1ccc([N+](=O)[O-])cc1 (stereo not drawn)
T/C (dose: 75.0 mg/kg/injection, schedule: Q01DX001 (ip), vehicle: Klucel (hydroxypropylcellulose) (HPC)): 89 % of control | T/C (dose: 150.0 mg/kg/injection, schedule: Q01DX001 (ip), vehicle: Klucel (hydroxypropylcellulose) (HPC)): 103 % of control | T/C (dose: 300.0 mg/kg/injection, schedule: Q01DX001 (ip), vehicle: Klucel (hydroxypropylcellulose) (HPC)): 95 % of control

CSC(=S)n1nc(C)c(N=Nc2ccccc2[N+](=O)[O-])c1C
T/C (dose: 100.0 mg/kg/injection, schedule: Q01DX001 (ip), vehicle: Klucel (hydroxypropylcellulose) (HPC)): 111 % of control | T/C (dose: 200.0 mg/kg/injection, schedule: Q01DX001 (ip), vehicle: Klucel (hydroxypropylcellulose) (HPC)): 96 % of control | T/C (dose: 400.0 mg/kg/injection, schedule: Q01DX001 (ip), vehicle: Klucel (hydroxypropylcellulose) (HPC)): 106 % of control

CCOC([O-])=N/C(=N/[n+]1ccc(C)cc1)c1ccccc1
T/C (dose: 100.0 mg/kg/injection, schedule: Q04DX003 (ip), vehicle: saline): 104 % of control | T/C [1]: 106 % of control

C=C1C(=O)OC2/C=C(/CO)C3(O)CC(O)C(C)(CC(OC(=O)/C(C)=C/C)C12)O3 (stereo not drawn)
T/C (dose: 10.0 mg/kg/injection, schedule: Q01DX009 (ip), vehicle: saline with Tween-80): 114 % of control and 117 % of control | T/C (dose: 20.0 mg/kg/injection, schedule: Q01DX009 (ip), vehicle: saline with Tween-80): 124 % of control

CCN(CC)CCN1C(=O)[C@H]2CC=CC[C@H]2C1=O
T/C (dose: 50.0 mg/kg/injection, schedule: Q01DX005 (ip), vehicle: saline): 99 % of control | T/C (dose: 100.0 mg/kg/injection, schedule: Q01DX005 (ip), vehicle: saline): 105 % of control | T/C (dose: 200.0 mg/kg/injection, schedule: Q01DX005 (ip), vehicle: saline): 97 % of control

CSc1ccc(N2C(=O)CSC2=O)cc1
T/C [2]: 106 % of control | T/C [3]: 114 % of control | T/C [4]: 109 % of control

CCCCCCCCCCCCCCCC1=NCCN1
T/C [5]: 105 % of control | T/C [6]: 107 % of control

CC(C)=CCC/C(C)=C/Cc1ccccc1
T/C [2]: 101 % of control and 109 % of control | T/C [3]: 103 % of control and 110 % of control | T/C [4]: 109 % of control

CC12CCC3C(CCC4=CC(OC5OC(CO)C(O)C(O)C5O)CCC43C=O)C1(O)CCC2c1ccc(=O)oc1 (stereo not drawn)
T/C (dose: 0.12 mg/kg/injection, schedule: Q01DX009 (ip), vehicle: saline + alcohol): 103 % of control | T/C (dose: 0.25 mg/kg/injection, schedule: Q01DX009 (ip), vehicle: saline + alcohol): 106 % of control | T/C (dose: 0.5 mg/kg/injection, schedule: Q01DX009 (ip), vehicle: saline + alcohol): 106 % of control | T/C (dose: 1.0 mg/kg/injection, schedule: Q01DX009 (ip), vehicle: saline + alcohol): 103 % of control

CCOc1ccccc1N=Nc1c(-c2ccccc2)nn(C(N)=S)c1-c1ccccc1
T/C [5]: 100 % of control | T/C [6]: 108 % of control | T/C (dose: 200.0 mg/kg/injection, schedule: Q01DX005 (ip), vehicle: saline with Tween-80): 101 % of control

O=C1C2CC=CCC2C(=O)N1SC(Cl)(Cl)Cl (stereo not drawn)
T/C (dose: 3.13 mg/kg/injection, schedule: Q01DX009 (ip), vehicle: saline with Tween-80): 121 % of control | T/C (dose: 6.25 mg/kg/injection, schedule: Q01DX009 (ip), vehicle: saline with Tween-80): 121 % of control | T/C (dose: 12.5 mg/kg/injection, schedule: Q01DX009 (ip), vehicle: saline with Tween-80): 120 % of control

CC(C)C(C(=O)O)N(C(=O)CN)C(=O)Cc1ccccc1 (stereo not drawn)
T/C [2]: 95 % of control | T/C [3]: 93 % of control | T/C [4]: 93 % of control

c1cc(-c2[nH]c3cc(C4=NCCN4)ccc3c2-c2cc3ccc(C4=NCCN4)cc3[nH]2)ccc1C1=NCCN1
T/C (dose: 3.12 mg/kg/injection, schedule: Q01DX005 (ip), vehicle: Klucel (hydroxypropylcellulose) (HPC)): 107 % of control | T/C (dose: 6.25 mg/kg/injection, schedule: Q01DX005 (ip), vehicle: Klucel (hydroxypropylcellulose) (HPC)): 96 % of control | T/C (dose: 12.5 mg/kg/injection, schedule: Q01DX005 (ip), vehicle: Klucel (hydroxypropylcellulose) (HPC)): 109 % of control

COc1cc(CCCOC2OC(COC3OCC(O)C(O)C3O)C(O)C(O)C2O)cc2cc(-c3ccc4c(c3)OCO4)oc12 (stereo not drawn)
T/C (dose: 2.34 mg/kg/injection, schedule: Q01DX005 (ip), vehicle: Klucel (hydroxypropylcellulose) (HPC)): 95 % of control | T/C (dose: 4.68 mg/kg/injection, schedule: Q01DX005 (ip), vehicle: Klucel (hydroxypropylcellulose) (HPC)): 94 % of control | T/C (dose: 9.37 mg/kg/injection, schedule: Q01DX005 (ip), vehicle: Klucel (hydroxypropylcellulose) (HPC)): 98 % of control | T/C (dose: 18.75 mg/kg/injection, schedule: Q01DX005 (ip), vehicle: Klucel (hydroxypropylcellulose) (HPC)): 94 % of control

COc1ccc2c(c1OC)C(=O)OC2C1c2cc3c(cc2CC[N+]1(C)C)OCO3 (stereo not drawn)
T/C (dose: 12.5 mg/kg/injection, schedule: Q01DX001 (ip), vehicle: Klucel (hydroxypropylcellulose) (HPC)): 88 % of control | T/C (dose: 25.0 mg/kg/injection, schedule: Q01DX001 (ip), vehicle: Klucel (hydroxypropylcellulose) (HPC)): 92 % of control | T/C (dose: 50.0 mg/kg/injection, schedule: Q01DX001 (ip), vehicle: Klucel (hydroxypropylcellulose) (HPC)): 87 % of control

COC(=O)C1C(O)C(C)C(O)OC1C(C)C(O)C(C)/C=C\C=C(/C)C(=O)Nc1c(C)c(OC(C)=O)c2c(c1O)C(=O)C(C)=C1OCOC(/C(C)=C/C(C)=O)=C12 (stereo not drawn)
T/C (dose: 12.5 mg/kg/injection, schedule: Q01DX009 (ip), vehicle: Klucel (hydroxypropylcellulose) (HPC)): 103 % of control | T/C (dose: 25.0 mg/kg/injection, schedule: Q01DX005 (ip), vehicle: Klucel (hydroxypropylcellulose) (HPC)): 106 % of control | T/C (dose: 25.0 mg/kg/injection, schedule: Q01DX009 (ip), vehicle: Klucel (hydroxypropylcellulose) (HPC)): 108 % of control | T/C (dose: 50.0 mg/kg/injection, schedule: Q01DX005 (ip), vehicle: Klucel (hydroxypropylcellulose) (HPC)): 113 % of control | T/C [7]: 112 % of control | T/C (dose: 100.0 mg/kg/injection, schedule: Q01DX005 (ip), vehicle: Klucel (hydroxypropylcellulose) (HPC)): 113 % of control | T/C [8]: 108 % of control | T/C (dose: 200.0 mg/kg/injection, schedule: Q01DX005 (ip), vehicle: Klucel (hydroxypropylcellulose) (HPC)): 118 % of control

CCN(CC)CCNc1ccc(C)c2sc3ccccc3c(=O)c12 (tested in a mixture with another compound)
T/C (dose: 50.0 mg/kg/injection, schedule: Q01DX009 (ip), vehicle: saline): 160 % of control | T/C (dose: 100.0 mg/kg/injection, schedule: Q01DX009 (ip), vehicle: saline): 185 % of control | T/C [1]: 161 % of control | T/C (dose: 300.0 mg/kg/injection, schedule: Q04DX003 (ip), vehicle: saline): 95 % of control

O=C(/C=C/c1ccc(OCc2ccccc2)cc1)c1ccccc1[N+](=O)[O-]
T/C [2]: 104 % of control | T/C [3]: 101 % of control | T/C [4]: 92 % of control

S=C(S)N1CCCCC1
T/C (dose: 3.13 mg/kg/injection, schedule: Q01DX009 (ip), vehicle: saline): 88 % of control | T/C (dose: 6.25 mg/kg/injection, schedule: Q01DX009 (ip), vehicle: saline): 91 % of control | T/C (dose: 12.5 mg/kg/injection, schedule: Q01DX009 (ip), vehicle: saline): 86 % of control | T/C (dose: 25.0 mg/kg/injection, schedule: Q01DX009 (ip), vehicle: saline with Tween-80): 91 % of control | T/C (dose: 25.0 mg/kg/injection, schedule: Q01DX009 (ip), vehicle: saline): 86 % of control

CCSc1nc2ccc(NC(=O)CCC(=O)O)cc2s1
T/C [7]: 103 % of control | T/C [8]: 102 % of control | T/C [9]: 101 % of control

Cc1ccc2nc(-c3cccc(Cl)c3)oc(=O)c2c1
T/C [7]: 110 % of control | T/C [8]: 102 % of control | T/C [9]: 92 % of control

O=S(=O)(c1ccc(NC(=S)N/N=C/c2ccccc2O)cc1)N1CCCCC1
T/C (dose: 12.5 mg/kg/injection, schedule: Q01DX009 (ip), vehicle: olive oil, sesame oil, peanut oil): 105 % of control | T/C (dose: 25.0 mg/kg/injection, schedule: Q01DX009 (ip), vehicle: olive oil, sesame oil, peanut oil): 96 % of control | T/C (dose: 50.0 mg/kg/injection, schedule: Q01DX009 (ip), vehicle: olive oil, sesame oil, peanut oil): 96 % of control | T/C (dose: 100.0 mg/kg/injection, schedule: Q01DX009 (ip), vehicle: olive oil, sesame oil, peanut oil): 91 % of control | T/C (dose: 200.0 mg/kg/injection, schedule: Q01DX009 (ip), vehicle: olive oil, sesame oil, peanut oil): 91 % of control | T/C (dose: 400.0 mg/kg/injection, schedule: Q01DX009 (ip), vehicle: olive oil, sesame oil, peanut oil): 97 % of control

CC(C)Cc1c(O)c(N=Nc2ccc(C(=O)O)c(O)c2)c2ccccc2c1O
T/C (dose: 100.0 mg/kg/injection, schedule: Q04DX002 (ip), vehicle: distilled water + alcohol): 99 % of control | T/C (dose: 200.0 mg/kg/injection, schedule: Q04DX002 (ip), vehicle: distilled water + alcohol): 97 % of control
